This is an account of results in patent US11993574B2, “Pyrazole and imidazole compounds for inhibition of IL-17 and RORgamma” (REATA PHARMACEUTICALS, INC., priority 2018, dated 2024).

Common to all, as to format: cell-based
For test [1], the system named is Nrf2 transcription factor. Put plainly: AREc32 luciferase reporter assay. The settings on record: Homo sapiens; AREc32 cells, 19 hours; concentration required to increase GST ARE luciferase reporter activity by 2-fold; read-out: NRF2 ARE 2-Fold (EC2×). The text has this: A. AREc32 Luciferase Reporter Assay
The AREc32 luciferase reporter assay allows for quantitative assessment of the endogenous activity of the Nrt2 transcription factor in cultured mammalian cells. AREc32 cells are derived from MCF-7 human breast carcinoma cells that were stably transfected with a reporter construct that contains the firefly luciferase gene located downstream of eight copies of the rat GSTA2 antioxidant response element (ARE) sequence (Wang et al., 2006; Concept Life Sciences Integrated Discovery and Development Services Ltd (CLSIDDS)). Active Nrf2 binds to the ARE sequences and increases expression of the firefly luciferase gene. To assess the Nrf2-activating potential of the test compounds, AREc32 cells were plated in black […] plates at a density of 20,000 cells per well in triplicate in DMEM+10% FBS+0.8 mg/mL Geneticin and incubated at 37° C. with 5% CO2 in a humidified atmosphere. The next day, cells were treated with DMSO (vehicle) or test compound (concentration ranges of 0.4-200 nM or 3.9-2000 nM) for 19 hours. Luciferase activity was determined using the ONE-Glo Luciferase assay (Promega). The luminescence signal was measured on a BMG Pherastar microplate reader. The mean luminescence value from test compound-treated wells was normalized to that from DMSO-treated wells and was represented as fold-induction. Data were analyzed using GraphPad Prism version 6.00 for Windows, GraphPad Software, La Jolla Calif. USA. A non-linear regression curve with log (agonist) vs. response using a variable slope was used to fit the data. Where applicable, a maximum threshold value of 50-fold over DMSO was set. EC2× values were interpolated from the curve. EC2× corresponds to the concentration of test compound required to increase GST ARE Luciferase reporter activity by 2-fold.

For another test, the system named is IL-17A. Kind of test: IL-17 release from differentiated primary human T-cells (IL-17A HTRF assay). As to conditions: primary human CD4+ T cells differentiated into Th17 cells, 45-hour incubation, IL-17A in supernatant; read-out: hIL17 IC50. As for the experimental part: C. IL-17 Release from Differentiated Primary Human T-Cells and Cell Viability
Primary human cryopreserved CD4+ T Cells (Lonza) were thawed according to the manufacturer's recommendations and plated either in Lymphocyte Growth Medium-3 (LGM-3) or X-VIVO 20 media (Lonza) in 96-well tissue culture plates at a density of ˜2×10^5 cells per well, and allowed to recover for approximately 4 hours at 37° C. with 5% CO2 in a humidified atmosphere. After the recovery step, DMSO (vehicle) or test compound at doses ranging from 2 to 500 nM or 4 to 1000 nM in a three-fold dilution series was added to the cells. Three replicate wells were tested for each treatment condition. Final DMSO concentration in each well was 0.1%. Immediately after treatment, CD4+ T cells were activated by adding Dynabeads Human T-Activator CD3/CD28 (Life Technologies; bead-to-cell ratio of 1:2.5) and differentiated into Th17 cells by adding a mixture of the following cytokines: transforming growth factor-β (TGF-β, 5 ng/mL), IL-6 (20 ng/mL), IL-23 (20 ng/mL), and IL-1β (10 ng/mL). Undifferentiated control cells received only cytokine IL-2 (50 ng/mL). All human recombinant cytokines were purchased from R&D Systems. Following a 45-hour incubation at 37° C. with 5% CO2 in a humidified atmosphere, the plates were centrifuged for 3 minutes at 250×g, and half of the supernatant was transferred to anew plate to be used in the IL-17A assay (see below). Cell viability was assessed in the original plate using the CyQuant Direct Assay (Life Technologies). CyQuant reagent (an amount equal to 10% of remaining media volume) was added to the wells, and the plates were then incubated at 37° C. for 75 min. Fluorescence was read on a SpectraMax M2e spectrophotometer at 480 nm (excitation) and 535 nm (emission) wavelengths. CyQuant values from test compound samples were normalized to those from DMSO-treated samples. The concentration of IL-17A in the supernatant was measured using the Homogeneous Time-Resolved Fluorescence (HTRF) assay (Cisbio Bioassays) according to the manufacturer's protocol. The assay was performed at room temperature in low volume, solid white 384-well plates (Greiner Bio-One). Samples and standards (serially-diluted human recombinant IL-17A (0 to 5,000 pg/mL concentration range; Cisbio Bioassays) were incubated with the anti-human IL-17A antibody conjugates (the HTRF donor and acceptor pair) for 16 hours and fluorescence was measured using a Pherastar FS microplate reader (BMG Labtech) in the HTRF mode (excitation at 337 nm and emission at 665 nm and 620 nm). IL-17A levels were assessed in duplicate aliquots of supernatant from each well resulting in a total of six readings per test condition. The 665 nm/620 nm signal ratio was calculated and the concentration of IL-17A in each sample was determined by interpolation from the standard curve. The amount of IL-17A from test compound treated samples were normalized to that of the vehicle-treated samples, set to 100%. Data were analyzed using GraphPad Prism (GraphPad Software, La Jolla California USA). Concentrations of test compound were transformed by taking the logarithm of each concentration used. The IC50 values for compound-mediated reduction in IL-17A levels and cell viability were determined by non-linear regression analysis using the log(inhibitor) vs. normalized response with variable slope equation. Inhibition that is closely correlated with reduced viability is considered to be non-specific.
On the technique in general: In TR-FRET formats the signal depends on donor and acceptor labels being close together.

In test [2] the target is T1, Human RAR-related Orphan Receptor Gamma (RORγ) (Homo sapiens, UniProt P51449).
T1 sequence (P51449 269-508 limits assumed): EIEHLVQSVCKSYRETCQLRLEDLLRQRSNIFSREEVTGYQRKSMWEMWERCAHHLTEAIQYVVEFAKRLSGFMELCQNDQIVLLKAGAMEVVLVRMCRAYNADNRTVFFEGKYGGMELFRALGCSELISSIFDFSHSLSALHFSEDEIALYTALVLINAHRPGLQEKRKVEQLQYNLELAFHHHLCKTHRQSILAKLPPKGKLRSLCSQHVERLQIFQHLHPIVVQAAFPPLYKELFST
Kind of test: RORγ assay (GAL4-RORγ hybrid luciferase reporter, Indigo Biosciences). As to conditions: inverse-agonist activity, GAL4-RORγ reporter cells, 23 hours. The text has this: B. RORγ Assay and Cell Viability
The RORγ assay system was purchased from Indigo Biosciences. This nuclear receptor assay utilizes a human cell line that has been engineered to express a hybrid form of the Human RAR-related Orphan Receptor Gamma (RORγ) at high levels. The N-terminal DNA binding domain (DBD) of the native RORγ receptor was substituted with the yeast GAL4-DBD to generate the GAL4-RORγ hybrid nuclear receptor. The reporter cell line is transfected with a plasmid that encodes the beetle luciferase gene under the control of the GAL4 upstream activating sequence (UAS). GAL4 binds to the UAS and increases transcription of downstream target genes. The GAL4-RORγ hybrid is constitutively active; therefore, the principle application of this reporter assay system is to screen test compounds to quantify inverse-agonist activities against human RORγ. Because the ligand binding domain (LBD) of RORγ is identical to the LBD of RORγt, this assay is an accurate surrogate for evaluating activity of experimental ligands against RORγt. To assess the RORγ inverse-agonist activity of the test compounds, reporter cells were plated in white 96-well plates in triplicate and were treated with DMSO (vehicle) or test compound (concentration ranges of 7.8-2000 nM) at 37° C. with 5% CO2 in a humidified atmosphere for 23 hours. After this incubation, luciferin was added to the wells and luciferase activity was determined by measuring the luminescence signal using a BMG Pherastar microplate reader. Viability was determined using the Live Cell Multiplex Assay (Indigo Biosciences). Values from test compound samples were normalized to those from DMSO-treated samples. Data were analyzed using GraphPad Prism version 6.00 for Windows (GraphPad Software, La Jolla Calif. USA). A non-linear regression analysis with log (inhibitor) vs. normalized response using a variable slope was applied to fit the data and determine the IC50 values for inhibition of RORγ and cell viability. Inhibition that is closely correlated with reduced viability is considered to be non-specific.
A general note: A reporter such as luciferase makes a cellular process visible.

A word on the IC50: it is the concentration needed to halve the response being measured.

As for `C[C@H]1C(=O)C(C#N)=C[C@@]2(C)c3c(c(-c4ccncn4)nn3-c3ccc(-c4ccccc4)cc3)CC[C@H]12` [T48], in test [1], the EC (2-fold) was 0.187 µM. Moreover, the IC50 worked out at 30 nM in the test on IL-17A and 45 nM in test [2].
On to `C[C@H]1C(=O)C(C#N)=C[C@@]2(C)c3nc(-c4ccncc4)n(-c4ccccc4)c3CC[C@H]12` [T112], for which the EC (2-fold) in test [1] was determined as 0.563 µM. In addition, the half-maximal inhibitory concentration (IC50) in test [2] came out at 264 nM.
`COCCn1c(-c2ccc(C(C)C)cc2)nc2c1CC[C@@H]1[C@@H](C)C(=O)C(C#N)=C[C@@]21C` [T164]: the EC (2-fold) in test [1] was greater than 2 µM. Moreover, the values for the IC50 (with IL-17A; in test [2]) were 158 nM and 237 nM, respectively.
The corresponding values for `Cc1ccccc1-n1nc(-c2ccccc2)c2c1[C@]1(C)C=C(C#N)C(=O)[C@H](C)[C@H]1CC2` [T17] are 0.105 µM, 94 nM and 77 nM.
The corresponding values for `C[C@H]1C(=O)C(C#N)=C[C@@]2(C)c3c(c(-c4ccncn4)nn3-c3ccc(-c4cccnc4)cn3)CC[C@H]12` [T57] are 0.403 µM, 67 nM and 96 nM.
Regarding `CC(C)c1ccc(-c2nc3c([nH]2)CC[C@@H]2[C@@H](C)C(=O)C(C#N)=C[C@@]32C)cc1` [T173], in test [1], the EC (2-fold) was found to be 0.884 µM. Moreover, the IC50 was 119 nM with IL-17A and 1970 nM in test [2].
The corresponding values for `CC(C)c1ccc(-c2nc3c(n2-c2cccnc2)CC[C@@H]2[C@@H](C)C(=O)C(C#N)=C[C@@]32C)cc1` [T153] are 1.25 µM, 108 nM and 334 nM.
For `Cc1ccccc1-n1nc2c(c1-c1ccccc1)CC[C@@H]1[C@@H](C)C(=O)C(C#N)=C[C@@]21C` [T18] the same measures were 0.741 µM, 182 nM and 114 nM.
For `C[C@H]1C(=O)C(C#N)=C[C@@]2(C)c3nn(-c4ccc(-c5ccccc5)cc4)c(-c4ccncc4)c3CC[C@H]12` [T124] the same measures were 0.651 µM, 77 nM and 123 nM.
Turning to `C[C@H]1C(=O)C(C#N)=C[C@@]2(C)c3c(c(-c4ccc(F)cc4)nn3-c3ccc(-c4ccnc(CF)c4)cc3)CC[C@H]12` [T181], the EC (2-fold) in test [1] came to 0.25 µM. The values for the IC50 (with IL-17A; in test [2]) were 24 nM and 60 nM, respectively.
For `CC(C)c1ccc(-c2nc3c(n2C(C)C)CC[C@@H]2[C@@H](C)C(=O)C(C#N)=C[C@@]32C)cc1` [T162] the same measures were 1.12 µM, 137 nM and 141 nM.
For `C[C@H]1C(=O)C(C#N)=C[C@@]2(C)c3c(c(-c4ccccc4F)nn3-c3ccc(-c4cncnc4)cc3)CC[C@H]12` [T82] the same measures were 0.208 µM, 63 nM and 44 nM.
For `C[C@H]1C(=O)C(C#N)=C[C@@]2(C)c3nc(-c4ccccc4)n(-c4cccc(F)c4)c3CC[C@H]12` [T134] the same measures were 0.832 µM, 183 nM and 143 nM.
`Cc1ccc(-n2nc3c(c2-c2ccccc2)CC[C@@H]2[C@@H](C)C(=O)C(C#N)=C[C@@]32C)cc1` [T118]: in test [1], the EC (2-fold) was 0.635 µM. The IC50 came out at 158 nM with IL-17A and 122 nM in test [2].
For `C[C@H]1C(=O)C(C#N)=C[C@@]2(C)c3c(c(-c4cccnc4)nn3-c3ccc(-c4ccnc(CF)c4)cc3)CC[C@H]12` [T180] the same measures were 0.308 µM, 49 nM and 55 nM.
`C[C@H]1C(=O)C(C#N)=C[C@@]2(C)c3c(c(-c4ccncn4)nn3-c3ccc(C4CC4)cn3)CC[C@H]12` [T62]: the EC (2-fold) in test [1] was determined as 0.691 µM. The concentration for half-maximal inhibition (IC50) in test [2] turned out to be 284 nM.
The corresponding values for `C[C@H]1C(=O)C(C#N)=C[C@@]2(C)c3c(c(-c4ccccc4)nn3-c3ccc(C(=O)O)cc3)CC[C@H]12` [T52] are greater than 2 µM and greater than 2000 nM.
The corresponding values for `C[C@H]1C(=O)C(C#N)=C[C@@]2(C)c3nn(C4CCS(=O)(=O)C4)c(-c4ccccc4)c3CC[C@H]12` (some centres unmarked) [T30] are 0.462 µM and 143 nM.
For `C[C@H]1C(=O)C(C#N)=C[C@@]2(C)c3c(c(-c4ccccc4)nn3C3CCS(=O)(=O)C3)CC[C@H]12` (some centres unmarked) [T29] the same measures were 0.837 µM and 470 nM.
As to `C[C@H]1C(=O)C(C#N)=C[C@@]2(C)c3nc(-c4ccccc4)n(-c4nnn(C)n4)c3CC[C@H]12` [T111], the EC (2-fold) in test [1] is 0.59 µM. Besides, the IC50 in test [2] is 768 nM.
For `C[C@H]1C(=O)C(C#N)=C[C@@]2(C)c3c(c(-c4ccccc4)nn3-c3cccc(Br)c3)CC[C@H]12` [T33] the same measures were 0.29 µM and 89 nM.
